Measurements published in US12371434B2, “MLL1 inhibitors and anti-cancer agents” (NOVARTIS AG, priority 2020, dated 2025).

Assays:
[1] = biological target: wild type MLL1 four-member complex (MLL1-4C) (Homo sapiens, UniProt Q03164); assay: MLL1 LC-MS assay; type: biochemical; details: 30 nM MLL1-4C, 2.5 μM SAM, 10 μM H3K4me0; SAH production by LC-MS/MS; read-out: MLL1 LCMS
Experimental: The compounds of the present disclosure were serially and separately diluted 3-fold in DMSO to obtain a total of eight or twelve concentrations. Then the test compounds at each concentration (120 nL of each) were transferred by Mosquito into white Proxiplate plus 384-well microplate (PerkinElmer). Solutions (6 μL) of 60 nM wild type MLL1 four-member complex (MLL1-4C) and 5 μM SAM in the reaction buffer (20 mM Tris-HCl, pH8.0, 0.01% Tween 20, 1 mM DTT, 10 mM MgCl2, 0.01% BSA) were added to the wells that were then incubated with the test compound for 20 min. A 6 μL solution of 20 μM of the peptide substrate H3K4me0 (histone H3[1-21]-Biotin) in the reaction buffer was added to initiate each reaction. The final components in the reaction solution include 30 nM MLL1-4C, 2.5 μM SAM, and 10 μM H3K4me0 with varying concentration of the compounds. A positive control consisted of 30 nM MLL1-4C, 2.5 μM SAM, and 10 μM substrate in the absence of the test compound, and a negative control consisted of 2.5 μM SAM, and 10 μM substrate only. Each reaction was incubated at rt for 120 min, then stopped by addition of 3 μL per of quench solution (2.5% TFA with 320 nM d4-SAH). The reaction mixture was centrifuged (Eppendorf centrifuge 5810, Rotor A-4-62) for 2 min at 2000 rmp. The SAH production from the enzymatic assays were monitored by LC-MS/MS on an API 4000 triple quadrupole mass spec with TurboIon Spray (Applied Biosystem) coupled with Prominenece UFLC(Shimazu). The level of SAH production were then normalized based on the values coming from the positive and negative controls to give percent enzyme activities. The data were then fit to a dose response equation using the program Helios (Novartis) to get the IC50 values of the test compounds.

[2] = biological target: wild type MLL1 five-member complex (MLL1-5C) (Homo sapiens, UniProt Q03164); assay: MLL1 Flashplate assay; type: biochemical; details: 2.5 nM MLL1-5C, 0.5 μM 3H-SAM, 1 μM H3K4me0; read-out: MLL1 flash plate
Experimental: MLL1 Flashplate Assay To assess the compound potency in MLL1 Flashplate assay, compounds were serially diluted 3-fold in DMSO to obtain a total of twelve concentrations. Then the test compounds at each concentration (250 nL of each) were transferred by Mosquito into Corning #3675 384-well plate. Solutions (15 μL) of 4.2 nM wild type MLL1 five-member complex (MLL1-5C) in the assay buffer (20 mM Tris-HCl, pH8.0, 0.01% Tween 20, 1 mM DTT, 0.01% BSA) were added to the wells. A 10 μL solution of 2.5 μM of the peptide substrate H3K4me0 (histone H3[1-21]-Biotin) and 1.25 μM ^3H-SAM in the reaction buffer was then added to initiate each reaction. The final components in the reaction solution include 2.5 nM MLL1-5C, 0.5 μM ^3H-SAM, and 1 μM H3K4me0 with varying concentration of the compounds. A positive control consisted of 2.5 nM MLL1-5C, 0.5 μM ^3H-SAM, and 1 μM substrate in the absence of the test compound, and a negative control consisted of 0.5 μM ^3H-SAM, and 1 μM substrate only. Each reaction was incubated at rt for 90 min, then stopped by addition of 5 μL per of quench solution (0.5 mM SAM in assay buffer). 25 μL of each reaction solution was transferred to FlashPlate streptavidin 384-well microplate (PerkinElmer). After at least 1 h incubation at rt, the wells were washed three times with 0.1% Tween-20 in dH2O using the BioTek plate washer. The plates were then read in MicroBeta (PerkinElmer). The radioactive readouts were then normalized based on the values coming from the positive and negative controls to give percent enzyme activities. The data were then fit to a dose response equation using the program Helios to get the IC50 values of the test compounds.

H3K4me3 in MV4-11 cells = assay: MV4-11 H3K4Me3 cellular ELISA assay; type: cell-based; details: Homo sapiens, 48 hours, H3K4me3 signal normalized to total H3
Experimental: MV4-11H3K4Me3 Cellular ELISA Assay
MV4-11 (ATCC® CRL-9591™) was cultured with RPMI1640 medium (Thermo Fisher Scientific, cat #11875) supplemented with 10% FBS (Thermo Fisher Scientific, cat #10099141) and 50 U/ml Penicillin-Streptomycin (Thermo Fisher Scientific, cat #10378016) in humidified incubator at 37° C., 5% CO2.
200 nL compounds dissolved in DMSO were serially diluted at 1:3 ratio for 12 points starting from 10 mM and dispensed into each wells of cell culture plates (PDL-coated ViewPlate-384 Black, FTC, PerkinElmer, #6007710). 3,750 MV4-11 cells in 40 μL culture medium were seeded into each well and treated with desired concentration for 48 hours. After treatment, wash cells with cold phosphate based buffer (PBS, pH 7.4) and aspirate the remaining PBS buffer. Crude histone lysate was extracted by 40 μL 0.5M HCl for 1 hour in 4° C. following neutralization by adding 32 μL neutralization buffer (0.5M Sodium phosphate dibasic, pH˜12.5, 1.25 mM Dithiothreitol, Promega #V3151, Protease Inhibitor Cocktail, Sigma #8340) for each well. 5 μL and 20 μL of histone lysate was loaded to ELISA plate (384 Well Plates, PE HB, White, 6005620) for detection of total H3 and H3K4me3, respectively. Shake the plates gently in 4° C. for overnight. After histone binding, plates were washed with 80 μL PBS/T (PBS with 0.05% Tween-20) and blocked with 50 μL 3% BSA diluted in PBS/T per well for 1 hour. Incubate wells with primary antibody for 1 hour at room temperature using anti-H3K4me3 (CST #9727) and anti-total H3 (CST #9715) diluted 1:2000 in 3% BSA. Plates were then washed with PBS/T for 3 times and incubated with horseradish peroxidase (HRP) conjugated secondary antibody (CST #7074, 1:5000) for 1 hour at room temperature. The abundance of H3K4me3 and total H3 were measured by ECL substrates chemiluminesce (Pierce, #34080) on a plate reader (PerkinElmer EnVison 2104 Mutilable Reader). Percentage inhibition was calculated against DMSO control after normalization of H3K4me3 signal to H3 signal for individual samples. The data were then fit to a dose response curve using GraphPad Prism for IC50 calculation.

Row | SMILES | IC50 [1] [nM] | IC50 [2] [nM] | IC50 (H3K4me3 in MV4-11 cells) [nM]
1 | COC(=O)[C@H](N)CCCOc1ccc(Cl)c(Cl)c1Cn1cnc2c(N)ncnc21 [Example 33, methyl (R)-2-amino-5-(2-((6-amino-9H-purin-9-yl)methyl)-3,4-dichlorophenoxy)pentanoate] | < 50 | – | –
2 | COC[C@H](N)CCOc1cc(Cl)cc(Br)c1Cn1cnc2c(N)ncnc21 [Example 2, (R)-9-(2-(3-amino-4-methoxybutoxy)-6-bromo-4-chlorobenzyl)-9H-purin-6-amine] | > 100 | > 100 | –
3 | COC[C@@H](N)CCOc1ccc(Cl)c(Cl)c1Cc1cnn2c(N)ncnc12 [Example 17, (S)-8-(6-(3-amino-4-methoxybutoxy)-2,3-dichlorobenzyl)pyrazolo[1,5-a][1,3,5]triazin-4-amine] | > 100 | > 100 | –
4 | NC(=O)[C@H](N)CCCOc1ccc(Cl)c(Cl)c1Cc1cnc2c(N)ncnn12 [Example 35, (R)-2-amino-5-(2-((4-aminoimidazo[2,1-f][1,2,4]triazin-7-yl)methyl)-3,4-dichlorophenoxy)pentanamide] | > 100 | – | > 3000
5 | NCCCCOc1cc(Cl)cc(Cl)c1Cn1cnc2c(N)nccc21 [Example 46, 1-(2-(4-aminobutoxy)-4,6-dichlorobenzyl)-1H-imidazo[4,5-c]pyridin-4-amine] | > 100 | – | –
6 | CCc1cc(Cl)cc(OCC[C@H](N)COC)c1Cn1cnc2c(N)ncnc21 [Example 4, (S)-9-(2-(3-amino-4-methoxybutoxy)-4-chloro-6-ethylbenzyl)-9H-purin-6-amine] | > 100 | – | > 3000
7 | CC(C)c1nc(N)c2ncn(Cc3c(Cl)cc(Cl)cc3OCCC[C@@H](N)C(=O)O)c2n1 [Example 26, (R)-2-amino-5-(2-((6-amino-2-isopropyl-9H-purin-9-yl)methyl)-3,5-dichlorophenoxy)pentanoic acid] | > 100 | – | –
8 | Nc1ncc(Cl)c2c1ncn2Cc1c(Cl)cc(Cl)cc1OCCCC(N)C(=O)O (stereo not shown) [Example 28, 2-amino-5-(2-((4-amino-7-chloro-1H-imidazo[4,5-c]pyridin-1-yl)methyl)-3,5-dichlorophenoxy) pentanoic acid] | > 100 | – | –
9 | COC[C@H](N)CCCOc1cccc(Cl)c1Cc1cnn2c(N)ncnc12 [Example 11, (R)-8-(2-((4-amino-5-methoxypentyl)oxy)-6-chlorobenzyl)pyrazolo[1,5-a][1,3,5]triazin-4-amine] | > 100 | – | > 3000
10 | COC[C@H](N)CCCOc1cccc(Cl)c1Cc1cnc2c(N)ncnn12 [Example 6, (R)-7-(2-((4-amino-5-methoxypentyl)oxy)-6-chlorobenzyl)imidazo[2,1-f][1,2,4]triazin-4-amine] | > 100 | – | –
11 | CNC(=O)[C@H](N)CCCOc1ccc(Cl)c(Cl)c1Cn1cnc2c(N)ncnc21 [Example 40, (R)-2-amino-5-(2-((6-amino-9H-purin-9-yl)methyl)-3,4-dichlorophenoxy)-N-methylpentanamide] | > 100 | – | –
12 | COC[C@H](N)CCCOc1ccccc1Cc1cnn2c(N)ncnc12 [Example 12, (R)-8-(2-((4-amino-5-methoxypentyl)oxy)benzyl)pyrazolo[1,5-a][1,3,5]triazin-4-amine] | > 100 | – | –
13 | COC[C@@H](N)CCOc1cc(Cl)cc(C)c1Cn1cnc2c(N)ncnc21 [Example 3, (S)-9-(2-(3-amino-4-methoxybutoxy)-4-chloro-6-methylbenzyl)-9H-purin-6-amine] | > 100 | – | > 3000
14 | Nc1ncnn2c(Cc3c(OCCC[C@@H](N)C(=O)O)ccc(Cl)c3Cl)cnc12 [Example 24, (R)-2-amino-5-(2-((4-aminoimidazo[2,1-f][1,2,4]triazin-7-yl)methyl)-3,4-dichlorophenoxy) pentanoic acid] | 50 to 100 | – | > 3000
15 | Nc1ncnc2c1ncn2Cc1c(OCC[C@H](N)C(=O)O)ccc(F)c1F [Example 25, O-(2-((6-amino-9H-purin-9-yl)methyl)-3,4-difluorophenyl)-L-homoserine] | > 100 | – | –
16 | COC[C@H](N)CCCOc1c(Cl)cccc1Cc1cnn2c(N)ncnc12 [Example 14, (R)-8-(2-((4-amino-5-methoxypentyl)oxy)-3-chlorobenzyl)pyrazolo[1,5-a][1,3,5]triazin-4-amine] | > 100 | – | –
17 | COC[C@H](N)CCCOc1cc(Cl)ccc1Cc1cnn2c(N)ncnc12 [Example 13, (R)-8-(2-((4-amino-5-methoxypentyl)oxy)-4-chlorobenzyl)pyrazolo[1,5-a][1,3,5]triazin-4-amine] | > 100 | – | –
18 | COC[C@H](N)CCCOc1ccc(Cl)c(Cl)c1Cn1cnc2c(N)ncc(Cl)c21 [Example 18, (R)-1-(6-((4-amino-5-methoxypentyl)oxy)-2,3-dichlorobenzyl)-7-chloro-1H-imidazo[4,5-c]pyridin-4-amine] | 50 to 100 | – | > 3000
19 | COC[C@H](N)CCCOc1cc(Cl)cc(Br)c1Cc1cnn2c(N)ncnc12 [Example 9, (R)-8-(2-((4-amino-5-methoxypentyl)oxy)-6-bromo-4-chlorobenzyl)pyrazolo[1,5-a][1,3,5] triazin-4-amine] | > 100 | – | > 3000
20 | COC[C@H](N)CCCOc1cccc(Br)c1Cc1cnn2c(N)ncnc12 [Example 10, (R)-8-(2-((4-amino-5-methoxypentyl)oxy)-6-bromobenzyl)pyrazolo[1,5-a][1,3,5]triazin-4-amine] | > 100 | – | –
21 | COC[C@H](N)CCCOc1ccccc1Cc1cnc2c(N)ncnn12 [Example 7, (R)-7-(2-((4-amino-5-methoxypentyl)oxy)benzyl)imidazo[2,1-f][1,2,4]triazin-4-amine] | > 100 | – | –
22 | NC(=O)[C@H](N)CCCOc1cc(Cl)cc(Cl)c1Cn1cnc2c(N)ncc(Cl)c21 [Example 38, (R)-2-amino-5-(2-((4-amino-7-chloro-1H-imidazo[4,5-c]pyridin-1-yl)methyl)-3,5-dichlorophenoxy)pentanamide] | > 100 | – | –
